This is an account of results in patent publication US8211828B2 (priority 2007, dated 2012).

The first assay concerns Phytophthora infestans. The assay is described as follows: microbe, parasite or virus in culture. The class given is cell-based. The following applies: 168 h, read-out: Observed effect (%).
Take `Cc1nc2ncnn2c(N)c1CCC(C)CC(C)(C)C` (stereo not shown) [7-3]: the inhibition of growth at 1 ppm is 31%.

As for `CCCCCCCCc1c(C)nc2ncnn2c1N` [7-4], the inhibition of growth at 4 ppm is 45%.

Turning to `CCCCCCCCc1c(CC)nc2nc(N)nn2c1N` [7-5], the inhibition of growth at 0.25 ppm worked out at 27% and the inhibition of growth at 4 ppm was 73%.

Take `CCCCCCCCc1c(CCC)nc2ncnn2c1N` [7-9]: the inhibition of growth at 1 ppm was 20% and the inhibition of growth at 4 ppm was found to be 58%.

Consider `CC(CCc1c(C(F)(F)F)nc2ncnn2c1N)CC(C)(C)C` (stereo not shown) [7-12], for which the inhibition of growth at 16 ppm was 66%.

As for `COc1cc(-c2ccccc2NC(=O)c2cn(C)nc2C(F)(F)F)c(F)cc1Cl` [Compound 3-1, N-(2′-fluoro-4′-chloro-5′-methoxybiphenyl-2-yl)-3-trifluoromethyl-1-methyl-1H-pyrazole-4-carboxamide], the inhibition of growth at 1 ppm worked out at 0%, the inhibition of growth at 4 ppm came to 0% and the inhibition of growth at 16 ppm was determined as 4%.

Regarding `Cn1cc(C(=O)Nc2ccccc2-c2cc(F)c(F)c(F)c2)c(C(F)(F)F)n1` [Compound 3-3, N-(3′,4′,5′-trifluorobiphenyl-2-yl)-3-trifluoromethyl-1-methyl-1H-pyrazole-4-carboxamide], the inhibition of growth at 0.25 ppm was 0%, the inhibition of growth at 1 ppm was 0% and the inhibition of growth at 4 ppm is 0%.

Take `COc1cc(-c2ccccc2NC(=O)c2cn(C)nc2C(F)F)c(F)cc1Cl` [Compound 3-6, N-(2′-fluoro-4′-chloro-5′-methoxybiphenyl-2-yl)-3-difluoromethyl-1-methyl-1H-pyrazole-4-carboxamide]: the inhibition of growth at 1 ppm is 0%, the inhibition of growth at 4 ppm was 3% and the inhibition of growth at 16 ppm was found to be 18%.

Consider `Cn1cc(C(=O)Nc2ccccc2-c2ccc(F)c(F)c2F)c(C(F)(F)F)n1` [Compound 3-7, N-(2′,3′,4′-trifluorobiphenyl-2-yl)-3-trifluoromethyl-1-methyl-1H-pyrazole-4-carboxamide], for which the inhibition of growth at 1 ppm was determined as 1% and the inhibition of growth at 4 ppm amounted to 4%.

Regarding `Cc1cc(-c2ccccc2NC(=O)c2cn(C)nc2C(F)F)c(F)cc1Cl` [Compound 3-8, N-(2′-fluoro-4′-chloro-5′-methylbiphenyl-2-yl)-3-difluoromethyl-1-methyl-1H-pyrazole-4-carboxamide], the inhibition of growth at 4 ppm stood at 10% and the inhibition of growth at 16 ppm was determined as 20%.

`Cn1cc(C(=O)Nc2ccccc2-c2cc(F)c(F)c(F)c2)c(C(F)F)n1` [Compound 3-9, N-(3′,4′,5′-trifluorobiphenyl-2-yl)-3-difluoromethyl-1-methyl-1H-pyrazole-4-carboxamide]: the inhibition of growth at 4 ppm is 9%.

In the case of `Cn1cc(C(=O)Nc2ccccc2-c2cc(F)c(F)cc2F)c(C(F)F)n1` [Compound 3-10, N-(2′,4′,5′-trifluorobiphenyl-2-yl)-3-difluoromethyl-1-methyl-1H-pyrazole-4-carboxamide], the inhibition of growth at 1 ppm amounted to 1% and the inhibition of growth at 4 ppm turned out to be 6%.

Take `Cn1cc(C(=O)Nc2ccccc2-c2cc(F)c(F)c(F)c2)c(CF)n1` [Compound 3-11, N-(3′,4′,5′-trifluorobiphenyl-2-yl)-3-fluoromethyl-1-methyl-1H-pyrazole-4-carboxamide]: the inhibition of growth at 1 ppm is 7% and the inhibition of growth at 16 ppm is 9%.

With `Cn1cc(C(=O)Nc2ccccc2-c2ccc(F)c(F)c2F)c(CF)n1` [Compound 3-14, N-(2′,3′,4′-trifluorobiphenyl-2-yl)-3-fluoromethyl-1-methyl-1H-pyrazole-4-carboxamide], the inhibition of growth at 1 ppm is 3%, the inhibition of growth at 4 ppm came out at 11% and the inhibition of growth at 16 ppm was found to be 18%.

For the next assay, the system named is Puccinia recondita. Description: Curative activity against brown rust of wheat caused by Puccinia recondita (greenhouse). The format is in vivo. The settings on record: single active compound, 0.25 ppm, control 90% infection. The protocol:
The expected efficacies of active compound combinations were determined using Colby's formula (Colby, S. R. “Calculating synergistic and antagonistic responses of herbicide combinations”, Weeds, 15, 20-22, 1967) and compared with the observed efficacies. Colby's formula: E=x+y−x·y/100 • E expected efficacy, expressed in % of the untreated control, when using the mixture of the active compounds A and B at the concentrations a and b; • x efficacy, expressed in % of the untreated control, when using the active compound A at the concentration a; • y efficacy, expressed in % of the untreated control, when using the active compound B at the concentration b. Micro Tests
The active compounds were separately or jointly prepared as a stock solution comprising 25 mg of active compound which was made up to 10 ml using a mixture of acetone and/or dimethyl sulfoxide and the emulsifier Uniperol® EL (wetting agent having emulsifying and dispersing action based on ethoxylated alkylphenols) in a volume ratio of solvent/emulsifier of 99 to 1. The mixture was then made up with water to 100 ml. This stock solution was diluted with the solvent/emulsifier/water mixture described to the concentration of active compound stated below.
Leaves of potted wheat seedlings were inoculated with a spore suspension of brown rust (Puccinia recondita). The pots were then placed in a chamber with high atmospheric humidity (90 to 95%) and 20 to 22° C. for 24 hours. During this time, the spores germinated and the germ tubes penetrated into the leaf tissue. The next day, the infected plants were sprayed to runoff point with the active compound solution described above at the active compound concentration stated below. After the spray coating had dried on, the test plants were cultivated in a greenhouse at temperatures between 20 and 22° C. and at 65 to 70% relative atmospheric humidity for 7 days. The extent of the rust fungus development on the leaves was then determined.
(§1) The visually determined percentages of infected leaf areas were converted into efficacies in % of the untreated control.
The efficacy (E) is calculated as follows using Abbot's formula: Abbot's formula: E=(1−α/β)·100 • α corresponds to the fungicidal infection of the treated plants in % and • β corresponds to the fungicidal infection of the untreated (control) plants in %
An efficacy of 0 means that the infection level of the treated plants corresponds to that of the untreated control plants; an efficacy of 100 means that the treated plants were not infected.
Regarding `Cn1cc(C(=O)Nc2ccccc2-c2cc(F)c(F)c(F)c2)c(C(F)F)n1` [Compound 3-9, N-(3′,4′,5′-trifluorobiphenyl-2-yl)-3-difluoromethyl-1-methyl-1H-pyrazole-4-carboxamide], the “Observed effect (%)” value is 0%.

Staying with this assay, now noted: single active compound, 1 ppm, control 90% infection.
Turning to `CCCCCCCCc1c(CC)nc2nc(N)nn2c1N` [7-5], the “Observed effect (%)” value is 0%.

As to `CCCCCCCCc1nc2ncnn2c(N)c1CC` [7-6], the “Observed effect (%)” value was determined as 0%.

As to `CCc1nc2ncnn2c(N)c1CCC(C)CC(C)(C)C` (stereo not shown) [7-8], the “Observed effect (%)” value came to 0%.

The test system of another assay is Puccinia recondita. The assay is described as follows: Protective activity against Puccinia recondita on wheat (brown rust of wheat) (greenhouse). The class given is in vivo. The following applies: single active compound, 0.25 ppm, control 80% infection. As for the experimental part: The expected efficacies of active compound combinations were determined using Colby's formula (Colby, S. R. “Calculating synergistic and antagonistic responses of herbicide combinations”, Weeds, 15, 20-22, 1967) and compared with the observed efficacies. Colby's formula: E=x+y−x·y/100 • E expected efficacy, expressed in % of the untreated control, when using the mixture of the active compounds A and B at the concentrations a and b; • x efficacy, expressed in % of the untreated control, when using the active compound A at the concentration a; • y efficacy, expressed in % of the untreated control, when using the active compound B at the concentration b. Micro Tests […]
as §1
The efficacy (E) is calculated as follows using Abbot's formula: Abbot's formula: E=(1−α/β)·100 • α corresponds to the fungicidal infection of the treated plants in % and • β corresponds to the fungicidal infection of the untreated (control) plants in % […]
Leaves of potted wheat seedlings were sprayed to runoff point with an aqueous suspension having the active compound concentration stated below. […] The extent of the rust fungus development on the leaves was then determined visually.
For `Cn1cc(C(=O)Nc2ccccc2-c2cc(F)c(F)c(F)c2)c(C(F)F)n1` [Compound 3-9, N-(3′,4′,5′-trifluorobiphenyl-2-yl)-3-difluoromethyl-1-methyl-1H-pyrazole-4-carboxamide], the “Observed effect (%)” value is 50%.

Staying with this assay, now noted: single active compound, 1 ppm, control 80% infection.
Regarding `Cc1nc2ncnn2c(N)c1-c1ccc(Cl)c(Cl)c1` [7-1], the “Observed effect (%)” value is recorded as 0%.
